Assays:
Type in all cases: in vivo, human
red blood cells = assay: Phase 1 open-label study in subjects with sickle cell disease: hemolysis and anemia markers (RDW, reticulocytes, total hemoglobin); details: SCD Cohort 1, 6 mg once daily
From the text: (§1) This is a Phase 1 multicenter, open-label study evaluating the safety, tolerability, pharmacokinetics (PK), fetal hemoglobin (HbF) induction and biological activity of Compound 1 in subjects 18-65 years of age with sickle cell disease (SCD). This study comprises 2 parts and is being conducted in subjects 18-65 years of age with sickle cell disease (SCD) either taking hydroxyurea (HU) at a stable dose for at least the preceding 3 months, or not taking hydroxyurea (HU).
(§2) The study consists of two phases. In Part A, Cohort 1 received 6 mg of Compound 1 by mouth once daily for 4 weeks, Cohort 2 received 2 mg of Compound 1 by mouth once daily for 4 weeks, and Cohort 3 received 12 mg of Compound 1 by mouth once daily for 4 weeks. An additional cohort may receive up to and including 20 mg of Compound 1 by mouth once daily for 4 weeks depending on the Data Monitoring Committee [DMC] review. Additional cohorts (up to five total cohorts) may be added based on the safety and pharmacokinetic data observed in subjects from the prior and ongoing cohorts. Up to 10 subjects have been or will be enrolled in each treatment arm.
(§3) The primary endpoints of the study are to evaluate the safety and tolerability of Compound 1 as measured by the frequency of adverse events and to evaluate single and multiple-dose pharmacokinetics of Compound 1 in subjects with sickle cell disease. […]

fetal hemoglobin (HbF) = assay: Phase 1 open-label multiple-dose study in subjects with sickle cell disease: HbF induction by HPLC
From the text: as §1, §2
Part B is the extension study. Eligible subjects who consent to continue in the extension study continue on treatment at the same dose level selected in Part A for an additional 8 weeks. Subjects who decline to participate in the extension study are followed for an additional 2-3 weeks.
The primary endpoints of the study are to evaluate the safety and tolerability of Compound 1 as measured by the frequency of adverse events and to evaluate single and multiple-dose pharmacokinetics of Compound 1 in subjects with sickle cell disease. Secondary endpoints include evaluating the effect of Compound 1 on fetal hemoglobin induction in peripheral blood, as well as changes from baseline in reticulocytes, in subjects with sickle cell disease. Exploratory endpoints include biomarkers of hemolysis, target engagement, incidence of vaso-occlusive crises (VOCs), and quality of life (QOL) measurements.

F-reticulocytes = assay: Phase 1 MAD study: F-reticulocytes; details: safety follow-up (SFU) visits 7-10 days post 14-day treatment; dosed at ≥6 mg
Description: (§4) Healthy volunteers received oral placebo vs. single oral doses of Compound 1 in the SAD cohorts, or oral placebo vs. single oral doses of Compound 1 once daily (QD) for 14 consecutive days in the MAD cohorts. Safety assessments included AEs, vital signs, ECGs, and laboratory parameters. PK/PD blood sampling was performed pre-dose and Days 1 and 2 in the SAD cohorts, and Days 1, 2, 7, 8 and 12-15 in the MAD cohorts. Target engagement was assessed as change from baseline in H3K27me3/Total Histone H3 ratio. PD assessments included changes in F reticulocytes and HBG mRNA.
Increases in F-cells and HbF protein are projected with longer treatment duration.
(§5) Data in FIG. 1 and FIG. 2 are presented as geometric LS mean ratios (to placebo) with a 95% confidence interval. Mixed-effects model for repeated measures (MMRM) analysis was performed for Day 7 and Day 14 measurements. An analysis of covariance (ANCOVA) was utilized for SFU data. In FIG. 1 and FIG. 2, “PBO” is placebo.

[1] = Phase 1 SAD/MAD clinical study in healthy volunteers: safety and tolerability
From the text: (§6) This is a study of the safety, tolerability, pharmacokinetics (PK) and pharmacodynamics (PD) of Compound 1 from a Phase 1, single ascending dose (SAD) and multiple ascending dose (MAD) clinical study.
as §4
(§7) Compound 1 was evaluated in […] healthy volunteer (HV) SAD cohorts (2 to 60 mg), […] HV MAD cohorts (2 to 30 mg QD, 14-day dosing). SAD dose cohorts include 2 mg, 4 mg, 6 mg, 10 mg, 20 mg, 30 mg, 40 mg, and 60 mg Compound 1. MAD dose cohorts include 2 mg, 4 mg, 6 mg, 10 mg, 20 mg, and 30 mg Compound 1.

[2] = test system: H3K27me3/Total Histone H3 ratio; assay: Phase 1 SAD/MAD study: target engagement (change from baseline in H3K27me3/Total Histone H3 ratio); details: healthy volunteers; across the entire dose range
Description: as §4

HBG mRNA = assay: Phase 1 MAD study: HBG mRNA induction
Description: as §4
Safety Follow-up (SFU) samples were collected 7-10 days post 14-day treatment period.
as §5

[3] = Phase 1 open-label multiple-dose study in subjects with sickle cell disease: safety and tolerability; details: oral once daily
From the text: as §1, §2
Part B is the extension study. […]
as §3

[4] = Phase 1 SAD/MAD clinical study in healthy volunteers: pharmacokinetics; details: oral, across all doses
From the text: as §6, §4, §7

[5] = SAD 2 to 60 mg, MAD 2 to 30 mg QD 14-day oral dosing

## Cc1ncccc1-c1cc2c(n3cnnc13)NCc1c(F)ccc3c1[C@H](CO3)CO2 [Compound 1]
Red blood cells
  absolute reticulocyte count and total hemoglobin: reductions in reticulocytes and increases in total hemoglobin
Red blood cells; Subjects 7 and 8
  red cell distribution width (RDW): reductions in RDW
Fetal hemoglobin (HbF); SCD Cohort 1, 6 mg once daily, Subjects 7 and 8
  response differences in HU versus non-HU treated subjects: no apparent response differences
Fetal hemoglobin (HbF); SCD Cohort 1, 6 mg orally once daily, Subjects 7 and 8 (with and without HU), day 84
  HbF increase: 6.8%-9.5%
Fetal hemoglobin (HbF); SCD Cohorts 1 and 2 (6 mg and 2 mg orally once daily)
  HbF response across doses: dose-dependent, clinically relevant and consistent increase in HbF
Fetal hemoglobin (HbF); SCD, a subject in the 12 mg dose cohort (Cohort 3), after 42 days of treatment
  absolute HbF increases from baseline: up to 10.0%
F-reticulocytes
  mean fold increase in F-reticulocytes: 1.7-3.9 fold
[1]; [5]
  SAEs or discontinuations: no SAEs or discontinuations
  Treatment-related adverse events: mild (Grade 1 or 2)
[1]; SAD and MAD cohorts
  Tolerability / safety signals: generally well tolerated and no unexpected safety signals were detected
[2]
  Target engagement: Robust target engagement
HBG mRNA; MAD cohorts, FIG. 1
  HBG mRNA induction dependence: both time- and dose-dependent
HBG mRNA; healthy volunteers, 6-30 mg MAD cohorts, QD 14 days oral
  placebo-adjusted increases from baseline in HBG mRNA: 2.4-6.2 fold
[3]
  Tolerability: generally well tolerated
[4]
  PK profiles: dose proportionality across all doses
